Data: BindingDB's records for doi:10.1016/j.ejmech.2020.112339 (China Pharmaceutical University, 2020)

Experiment: Inhibition of BTK in human TMD8 cells assessed as reduction in cell proliferation incubated for 24 hrs by CCK-8 assay

IC50: 4.36 µM
SMILES: C=CC(=O)Nc1cccc(Nc2ncnc(Nc3ccc(C(=O)N4CCCCC4)cc3)n2)c1
